Data published in patent EP4786487A1, “PEPTIDE” (Peptidream Inc, priority 2023, dated 2025).
Like-named read-outs stand apart in the source and are kept apart here. One block for each compound: values may come before it. Starred links: 1 amine or outer side, 2 acyl side, 3 side chain; linkers in the order of their positions; H or OH if unused. Positions of bridges follow the written chain, without caps; N, C: chain ends. Non-standard residues stand in square brackets, D forms with d. Residues, ends and D or L forms follow the SMILES beside them. *: point of attachment. Phe(4-(4-pyridyl)) = N[C@@H](Cc1ccc(-c2ccncc2)cc1)C(=O)O; Phe(3-OCH2COOH) = N[C@@H](Cc1cccc(OCC(=O)O)c1)C(=O)O; Piperidine(4-CH2CH2CONH2) = NC(=O)CCC1CCN(*)CC1; Phe(4-COOH) = N[C@@H](Cc1ccc(C(=O)O)cc1)C(=O)O; Trp(7-aza) = N[C@@H](Cc1c[nH]c2ncccc12)C(=O)O; Bip = N[C@@H](Cc1ccc(-c2ccccc2)cc1)C(=O)O; Gly(decyl) = CCCCCCCCCC[C@H](N)C(=O)O; Gly(N(CH2)3COOH) = O=C(O)CCCNCC(=O)O; X1 = CCCCCCC[C@H](N[*:1])C(=O)[*:2]; Gly(cPent) = N[C@H](C(=O)O)C1CCCC1; NMeF = CN[C@@H](Cc1ccccc1)C(=O)O; 4Pal = N[C@@H](Cc1ccncc1)C(=O)O; NMeE = CN[C@@H](CCC(=O)O)C(=O)O; Aoc(2) = CCCCCC[C@H](N)C(=O)O; Carboxymethyl = O=C(O)C*; NMeA = CN[C@@H](C)C(=O)O; Sar = CNCC(=O)O

How the values were obtained:
Type in all cases: cell-based
Myostatin [1] = experiment: Reporter gene assay for myostatin signaling in HepG2 cell line, Evaluation Procedure (1), myostatin inhibition; details: GDF-11 IC50 versus Myostatin IC50
In short: (§1)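 HepG2 cells transfected with pGL3(CAGA)12-luciferase reporter, serum-starved in 0.1% BSA medium, then stimulated with myostatin or GDF-11 plus 4-fold peptide dilutions (0.006–100 nmol/L for myostatin, 0.12–2000 nmol/L for GDF-11) for 20–24 h at 37 °C. Luminescence read with One-Glo; IC50 calculated.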

Myostatin [2] = biological target: T1, Myostatin (Homo sapiens, UniProt O14793); experiment: as above; details: read-out: IC50 (Luciferase) Myostatin HepG2
T1 construct: active myostatin (also called mature myostatin) is a homodimer consisting of two C-terminal growth factor domains; purchased R&D systems 788-G8/CF
T1 sequence (O14793 267-375): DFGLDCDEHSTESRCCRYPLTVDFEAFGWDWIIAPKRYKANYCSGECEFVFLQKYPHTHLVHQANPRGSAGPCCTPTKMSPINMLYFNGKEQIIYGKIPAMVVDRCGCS
In short: as §1

GDF-11 = biological target: T2, GDF-11 (Homo sapiens, UniProt O95390); experiment: Reporter gene assay for myostatin signaling in HepG2 cell line, Evaluation Procedure (1), GDF-11 inhibition; details: read-out: IC50 (Luciferase) GDF-11 HepG2
T2 construct: purchased R&D systems 1958-GD-G8/CF
T2 sequence (O95390 299-407): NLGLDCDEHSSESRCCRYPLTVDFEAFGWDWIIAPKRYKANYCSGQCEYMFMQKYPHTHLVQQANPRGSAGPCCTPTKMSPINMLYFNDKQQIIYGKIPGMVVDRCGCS
In short: as §1

SMILES: CC[C@H](C)[C@@H]1NC(=O)[C@H](Cc2ccccc2)N(C)C(=O)[C@H](Cc2ccc(O)cc2)NC(=O)[C@H](Cc2c[nH]c3ncccc23)NC(=O)[C@H](C)NC(=O)CN(CCCC(=O)O)C(=O)CSC[C@H](C(=O)NCC(=O)N[C@H](CCC(=O)O)C(=O)NCC(=O)N[C@H](CCCCN)C(=O)O)NC(=O)[C@H](Cc2ccccc2)N(C)C(=O)[C@H](C)N(C)C(=O)[C@H](CC(C)C)NC(=O)[C@H](Cc2ccccc2)N(C)C(=O)[C@H](CCCNC(=N)N)NC(=O)[C@H](Cc2ccc(C(=O)O)cc2)NC(=O)[C@H](Cc2ccncc2)NC(=O)CN(C)C1=O [Myostatin_99_v31] ({CH2CO}-[Gly(N(CH2)3COOH)]A[Trp(7-aza)]Y[NMeF]I[Sar][4Pal][Phe(4-COOH)]R[NMeF]L[NMeA][NMeF][dC]G[dE]G[dK]-OH; thioether N-15)
Selectivity (Myostatin [1]; Method A): 25 | IC50 (Myostatin [2]; Method A: Myostatin 10 ng/mL): 54.7 nM | IC50 (GDF-11; Method A: GDF-11 10 ng/mL): 1340 nM

SMILES: CC[C@H](C)[C@@H]1NC(=O)[C@H](Cc2ccccc2)N(C)C(=O)[C@H](Cc2ccc(O)cc2)NC(=O)[C@H](Cc2ccc(-c3ccccc3)cc2)NC(=O)[C@H](C)NC(=O)CN(CCCC(=O)O)C(=O)CSC[C@H](C(=O)O)NC(=O)[C@H](Cc2ccccc2)N(C)C(=O)[C@H](C)N(C)C(=O)[C@H](CC(C)C)NC(=O)[C@H](Cc2ccccc2)N(C)C(=O)[C@H](CCCNC(=N)N)NC(=O)[C@H](Cc2ccc(C(=O)O)cc2)NC(=O)[C@H](Cc2cccc(OCC(=O)O)c2)NC(=O)CN(C)C1=O [Myostatin_99_v184] ({CH2CO}-[Gly(N(CH2)3COOH)]A[Bip]Y[NMeF]I[Sar][Phe(3-OCH2COOH)][Phe(4-COOH)]R[NMeF]L[NMeA][NMeF][dC]-OH; thioether N-15)
Selectivity (Myostatin [1]; Method A): 129 | IC50 (Myostatin [2]; Method A: Myostatin 10 ng/mL): 14.2 nM | IC50 (GDF-11; Method A: GDF-11 10 ng/mL): 1830 nM

SMILES: CC(C)C[C@@H]1NC(=O)[C@H](Cc2ccccc2)N(C)C(=O)[C@H](CCCNC(=N)N)NC(=O)[C@H](Cc2ccc(OCC(=O)O)cc2)NC(=O)[C@H](Cc2cccc(OCC(=O)O)c2)NC(=O)[C@H](C)N(C)C(=O)[C@H](C2CCCC2)NC(=O)[C@H](Cc2ccccc2)N(C)C(=O)[C@H](Cc2ccc(O)cc2)NC(=O)[C@H](Cc2ccc(-c3ccncc3)cc2)NC(=O)[C@H](C)NC(=O)CN(CCCC(=O)O)C(=O)CSC[C@H](C(=O)O)NC(=O)[C@H](Cc2ccccc2)N(C)C(=O)[C@H](C)N(C)C1=O [Myostatin_99_v135] ({CH2CO}-[Gly(N(CH2)3COOH)]A[Phe(4-(4-pyridyl))]Y[NMeF][Gly(cPent)][NMeA][Phe(3-OCH2COOH)]Y(Carboxymethyl)R[NMeF]L[NMeA][NMeF][dC]-OH; thioether N-15)
Selectivity (Myostatin [1]; Method A): 145 | IC50 (Myostatin [2]; Method A: Myostatin 10 ng/mL): 22.6 nM | IC50 (GDF-11; Method A: GDF-11 10 ng/mL): 3290 nM

SMILES: CCCCCCCCCC[C@@H]1NC(=O)[C@H](Cc2ccccc2)N(C)C(=O)[C@H](CCCNC(=N)N)NC(=O)[C@H](Cc2ccc(C(=O)O)cc2)NC(=O)[C@H](Cc2cccc(OCC(=O)O)c2)NC(=O)CN(C)C(=O)[C@H]([C@@H](C)CC)NC(=O)[C@H](Cc2ccccc2)N(C)C(=O)[C@H](Cc2ccc(O)cc2)NC(=O)[C@H](Cc2c[nH]c3ccccc23)NC(=O)[C@H](C)NC(=O)[C@H](C)NC(=O)CSC[C@H](C(=O)N2CCC(CCC(N)=O)CC2)NC(=O)[C@H](Cc2ccccc2)N(C)C(=O)[C@H](CCC(=O)O)N(C)C1=O [Myostatin_99_v346] ({CH2CO}-AAWY[NMeF]I[Sar][Phe(3-OCH2COOH)][Phe(4-COOH)]R[NMeF][Gly(decyl)][NMeE][NMeF][dC]-{Piperidine(4-CH2CH2CONH2)}; thioether N-15)
Selectivity (Myostatin [1]; Method C): 116.0 | IC50 (Myostatin [2]; Method C: Myostatin 1.5 ng/mL): 0.09 nM | IC50 (GDF-11; Method C: GDF-11 1 ng/mL): 10.5 nM

SMILES: CC[C@H](C)[C@@H]1NC(=O)[C@H](Cc2ccccc2)N(C)C(=O)[C@H](Cc2ccc(O)cc2)NC(=O)[C@H](Cc2ccc(-c3ccncc3)cc2)NC(=O)CNC(=O)CN(CCCC(=O)O)C(=O)CSC[C@H](C(=O)O)NC(=O)[C@H](Cc2ccccc2)N(C)C(=O)[C@H](C)N(C)C(=O)[C@H](CC(C)C)NC(=O)[C@H](Cc2ccccc2)N(C)C(=O)[C@H](CCCNC(=N)N)NC(=O)[C@H](Cc2ccc(OCC(=O)O)cc2)NC(=O)[C@H](Cc2cccc(OCC(=O)O)c2)NC(=O)[C@H](C)N(C)C1=O [Myostatin_99_v91] ({CH2CO}-[Gly(N(CH2)3COOH)]G[Phe(4-(4-pyridyl))]Y[NMeF]I[NMeA][Phe(3-OCH2COOH)]Y(Carboxymethyl)R[NMeF]L[NMeA][NMeF][dC]-OH; thioether N-15)
Selectivity (Myostatin [1]; Method A): 102 | IC50 (Myostatin [2]; Method A: Myostatin 10 ng/mL): 72.3 nM | IC50 (GDF-11; Method A: GDF-11 10 ng/mL): 7380 nM

Further compounds by falling IC50 (Myostatin [2]; Method A: Myostatin 10 ng/mL), results first:

IC50 (Myostatin [2]; Method A: Myostatin 10 ng/mL): 6.1 nM | IC50 (GDF-11; Method A: GDF-11 10 ng/mL): 90 nM
SMILES: CCCCCCC[C@@H]1NC(=O)[C@H](Cc2ccccc2)N(C)C(=O)[C@H](CCCNC(=N)N)NC(=O)[C@H](Cc2ccc(C(=O)O)cc2)NC(=O)[C@H](Cc2cccc(OCC(=O)O)c2)NC(=O)CN(C)C(=O)[C@H]([C@@H](C)CC)NC(=O)[C@H](Cc2ccccc2)N(C)C(=O)[C@H](Cc2ccc(O)cc2)NC(=O)[C@H](Cc2c[nH]c3ncccc23)NC(=O)[C@H](CO)NC(=O)CN(CCCC(=O)O)C(=O)CSC[C@H](C(=O)O)NC(=O)[C@H](Cc2ccccc2)N(C)C(=O)[C@H](C)N(C)C1=O [Myostatin_99_v162] ({CH2CO}-[Gly(N(CH2)3COOH)]S[Trp(7-aza)]Y[NMeF]I[Sar][Phe(3-OCH2COOH)][Phe(4-COOH)]R[NMeF][X1][NMeA][NMeF][dC]-OH; thioether N-15)
Selectivity (Myostatin [1]; Method A): 15

IC50 (Myostatin [2]; Method A: Myostatin 10 ng/mL): 3.5 nM | IC50 (GDF-11; Method A: GDF-11 10 ng/mL): 270 nM
SMILES: CCCCCC[C@@H]1NC(=O)[C@H](Cc2ccccc2)N(C)C(=O)[C@H](CCCNC(=N)N)NC(=O)[C@H](Cc2ccc(C(=O)O)cc2)NC(=O)[C@H](Cc2cccc(OCC(=O)O)c2)NC(=O)CN(C)C(=O)[C@H]([C@@H](C)CC)NC(=O)[C@H](Cc2ccccc2)N(C)C(=O)[C@H](Cc2ccc(O)cc2)NC(=O)[C@H](Cc2c[nH]c3ccccc23)NC(=O)[C@H](C)NC(=O)[C@H](C)NC(=O)CSC[C@H](C(=O)O)NC(=O)[C@H](Cc2ccccc2)N(C)C(=O)[C@H](C)N(C)C1=O [Myostatin_99_v207] ({CH2CO}-AAWY[NMeF]I[Sar][Phe(3-OCH2COOH)][Phe(4-COOH)]R[NMeF][Aoc(2)][NMeA][NMeF][dC]-OH; thioether N-15)
Selectivity (Myostatin [1]; Method A): 77

IC50 (Myostatin [2]; Method A: Myostatin 10 ng/mL): 3.4 nM | IC50 (GDF-11; Method A: GDF-11 10 ng/mL): 438 nM
SMILES: CCCCCCC[C@@H]1NC(=O)[C@H](Cc2ccccc2)N(C)C(=O)[C@H](CCCNC(=N)N)NC(=O)[C@H](Cc2ccc(C(=O)O)cc2)NC(=O)[C@H](Cc2cccc(OCC(=O)O)c2)NC(=O)[C@H](C)N(C)C(=O)[C@H]([C@@H](C)CC)NC(=O)[C@H](Cc2ccccc2)N(C)C(=O)[C@H](Cc2ccc(O)cc2)NC(=O)[C@H](Cc2c[nH]c3ccccc23)NC(=O)[C@H](CO)NC(=O)[C@H](C)NC(=O)CSC[C@H](C(=O)O)NC(=O)[C@H](Cc2ccccc2)N(C)C(=O)[C@H](C)N(C)C1=O [Myostatin_99_v197] ({CH2CO}-ASWY[NMeF]I[NMeA][Phe(3-OCH2COOH)][Phe(4-COOH)]R[NMeF][X1][NMeA][NMeF][dC]-OH; thioether N-15)
Selectivity (Myostatin [1]; Method A): 129

IC50 (Myostatin [2]; Method A: Myostatin 10 ng/mL): 3.3 nM | IC50 (GDF-11; Method A: GDF-11 10 ng/mL): 215 nM
SMILES: CCCCCCC[C@@H]1NC(=O)[C@H](Cc2ccccc2)N(C)C(=O)[C@H](CCCNC(=N)N)NC(=O)[C@H](Cc2ccc(C(=O)O)cc2)NC(=O)[C@H](Cc2ccncc2)NC(=O)CN(C)C(=O)[C@H]([C@@H](C)CC)NC(=O)[C@H](Cc2ccccc2)N(C)C(=O)[C@H](Cc2ccc(O)cc2)NC(=O)[C@H](Cc2c[nH]c3ncccc23)NC(=O)[C@H](C)NC(=O)CN(CCCC(=O)O)C(=O)CSC[C@H](C(=O)O)NC(=O)[C@H](Cc2ccccc2)N(C)C(=O)[C@H](C)N(C)C1=O [Myostatin_99_v170] ({CH2CO}-[Gly(N(CH2)3COOH)]A[Trp(7-aza)]Y[NMeF]I[Sar][4Pal][Phe(4-COOH)]R[NMeF][X1][NMeA][NMeF][dC]-OH; thioether N-15)
Selectivity (Myostatin [1]; Method A): 65

IC50 (Myostatin [2]; Method A: Myostatin 10 ng/mL): 2.1 nM | IC50 (GDF-11; Method A: GDF-11 10 ng/mL): 119 nM
SMILES: CCCCCCC[C@@H]1NC(=O)[C@H](Cc2ccccc2)N(C)C(=O)[C@H](CCCNC(=N)N)NC(=O)[C@H](Cc2ccc(C(=O)O)cc2)NC(=O)[C@H](Cc2ccc(O)cc2)NC(=O)CN(C)C(=O)[C@H]([C@@H](C)CC)NC(=O)[C@H](Cc2ccccc2)N(C)C(=O)[C@H](Cc2ccc(O)cc2)NC(=O)[C@H](Cc2c[nH]c3ncccc23)NC(=O)[C@H](C)NC(=O)CN(CCCC(=O)O)C(=O)CSC[C@H](C(=O)O)NC(=O)[C@H](Cc2ccccc2)N(C)C(=O)[C@H](C)N(C)C1=O [Myostatin_99_v168] ({CH2CO}-[Gly(N(CH2)3COOH)]A[Trp(7-aza)]Y[NMeF]I[Sar]Y[Phe(4-COOH)]R[NMeF][X1][NMeA][NMeF][dC]-OH; thioether N-15)
Selectivity (Myostatin [1]; Method A): 57
